Data: ChEMBL document CHEMBL5518166, “Exploring thienothiadiazine dioxides as isosteric analogues of benzo- and pyridothiadiazine dioxides in the search of new AMPA and kainate receptor positive allosteric modulators” (Eur J Med Chem, 2024)
Active and inactive are the calls of the source. No cut-off for these calls is given here.

Legend:
[1] = target: T1, Glutamate receptor ionotropic, AMPA (Rattus norvegicus) (UniProt P19491+P19492+P19493+P19490); assay: Positive allosteric modulation of rat cortex AMPAR expressed in xenopus oocytes assessed as concentration required for 2 fold increase in AMPA induced […]; assay type: cell-based; details: Oocyte, filed as positive allosteric modulator
[2] = target: Glutamate receptor ionotropic kainate 1 (Homo sapiens) (UniProt P39086); assay: Positive allosteric modulation at kainate receptor in HEK293 cells expressing GluK1-Q1b assessed as glutamate induced calcium influx by measuring efficacy relative to control; details: filed as positive allosteric modulator
[3] = target: Glutamate receptor ionotropic kainate 2 (Homo sapiens) (UniProt Q13002); assay: Positive allosteric modulation at kainate receptor in HEK293 cells expressing GluK2-Q2a assessed as glutamate induced calcium influx by measuring efficacy relative to control; details: filed as positive allosteric modulator
[4] = target: T1, Glutamate receptor ionotropic, AMPA (Rattus norvegicus); assay: Positive allosteric modulation at AMPAR in rat Primary embryonic cortical cell assessed as concentration required for 2 fold increase in AMPA induced fluorescence by FlipR assay; assay type: cell-based; details: filed as positive allosteric modulator
[5] = target: Glutamate receptor ionotropic AMPA (Homo sapiens, UniProt P42261+P42262+P42263+P48058); assay: Positive allosteric modulation at AMPAR in HEK293 cells expressing GluA2Qi subunit assessed as glutamate induced calcium influx; assay type: cell-based
[6] = target: Glutamate receptor ionotropic AMPA (Homo sapiens) (UniProt P48058+P42263+P42262+P42261); assay: Positive allosteric modulation at AMPAR in HEK293 cells expressing GluA2 assessed as glutamate induced calcium influx by measuring efficacy relative to control; assay type: cell-based; details: filed as positive allosteric modulator
[7] = target: T1, Glutamate receptor ionotropic, AMPA (Rattus norvegicus); assay: Positive allosteric modulation at AMPAR in rat Primary embryonic cortical cell assessed as concentration required for 2 fold increase in AMPA induced fluorescence; assay type: cell-based; details: filed as positive allosteric modulator
[8] = target: T1, Glutamate receptor ionotropic, AMPA (Rattus norvegicus); assay: Positive allosteric modulation at AMPAR in rat Primary embryonic cortical cell assessed as concentration required for 2 fold increase in AMPA induced fluorescence by FDSS fluorescence assay; assay type: cell-based; details: Cerebral cortex cell, filed as positive allosteric modulator
[9] = Toxicity in NMR1 mouse assessed as effect on hypothermia at 30 mg/kg measured upto 180 mins; assay type: organism-based; details: in vivo, 3 h
Mus musculus [10] = assay: Cognition enhancing effect in CD1 mouse assessed as increase in exploration time spent on new object at 3 mg/kg, po measured after 1 hr by object recognition test (reference value: 35%); assay type: functional
[11] = Toxicity in NMR1 mouse assessed as pro-convulsant effect at 100 mg/kg measured upto 180 mins; assay type: organism-based; details: in vivo, 3 h
[12] = Toxicity in NMR1 mouse assessed as effect on hypothermia at 100 mg/kg measured upto 180 mins; assay type: organism-based; details: in vivo, 3 h
Rattus norvegicus = assay: Cognition enhancing effect in Wistar rat assessed as increase in amplitude of initial post-synaptic response at 30 mg/kg, ip pretreated for 1 hr followed by tetanic stimulation and measured for 3 hrs; assay type: functional, organism-based; details: time 4.0 hrs
Mus musculus [13] = assay: Cognition enhancing effect in CD1 mouse assessed as increase in exploration time spent on new object at 1 mg/kg, po measured after 1 hr by object recognition test (reference value: 35%); assay type: functional

Chain of Glutamate receptor ionotropic kainate 1 (Homo sapiens) (P39086 whole entry, looked up): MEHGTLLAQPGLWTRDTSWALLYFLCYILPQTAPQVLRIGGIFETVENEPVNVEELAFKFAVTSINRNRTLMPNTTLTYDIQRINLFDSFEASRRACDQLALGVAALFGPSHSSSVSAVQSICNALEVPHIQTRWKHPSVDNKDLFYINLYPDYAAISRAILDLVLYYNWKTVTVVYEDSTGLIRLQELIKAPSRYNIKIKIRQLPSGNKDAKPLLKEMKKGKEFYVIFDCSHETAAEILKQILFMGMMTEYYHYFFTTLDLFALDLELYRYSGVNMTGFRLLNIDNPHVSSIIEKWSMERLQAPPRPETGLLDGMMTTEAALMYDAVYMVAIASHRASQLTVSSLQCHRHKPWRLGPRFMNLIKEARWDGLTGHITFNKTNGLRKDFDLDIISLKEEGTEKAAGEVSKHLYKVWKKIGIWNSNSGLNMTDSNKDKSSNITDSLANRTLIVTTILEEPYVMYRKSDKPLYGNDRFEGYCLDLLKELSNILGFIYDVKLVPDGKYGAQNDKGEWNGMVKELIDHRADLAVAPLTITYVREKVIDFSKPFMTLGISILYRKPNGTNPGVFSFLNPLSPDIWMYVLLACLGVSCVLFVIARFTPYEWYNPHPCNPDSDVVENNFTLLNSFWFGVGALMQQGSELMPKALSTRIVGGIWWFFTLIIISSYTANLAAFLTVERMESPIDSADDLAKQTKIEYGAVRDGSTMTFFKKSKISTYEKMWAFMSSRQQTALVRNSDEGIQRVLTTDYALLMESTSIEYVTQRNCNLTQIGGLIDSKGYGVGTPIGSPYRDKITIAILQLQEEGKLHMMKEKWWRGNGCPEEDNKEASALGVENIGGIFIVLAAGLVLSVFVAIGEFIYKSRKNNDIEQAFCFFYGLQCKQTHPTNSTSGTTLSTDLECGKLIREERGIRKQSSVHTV
Chain of Glutamate receptor ionotropic kainate 2 (Homo sapiens) (Q13002 whole entry, looked up): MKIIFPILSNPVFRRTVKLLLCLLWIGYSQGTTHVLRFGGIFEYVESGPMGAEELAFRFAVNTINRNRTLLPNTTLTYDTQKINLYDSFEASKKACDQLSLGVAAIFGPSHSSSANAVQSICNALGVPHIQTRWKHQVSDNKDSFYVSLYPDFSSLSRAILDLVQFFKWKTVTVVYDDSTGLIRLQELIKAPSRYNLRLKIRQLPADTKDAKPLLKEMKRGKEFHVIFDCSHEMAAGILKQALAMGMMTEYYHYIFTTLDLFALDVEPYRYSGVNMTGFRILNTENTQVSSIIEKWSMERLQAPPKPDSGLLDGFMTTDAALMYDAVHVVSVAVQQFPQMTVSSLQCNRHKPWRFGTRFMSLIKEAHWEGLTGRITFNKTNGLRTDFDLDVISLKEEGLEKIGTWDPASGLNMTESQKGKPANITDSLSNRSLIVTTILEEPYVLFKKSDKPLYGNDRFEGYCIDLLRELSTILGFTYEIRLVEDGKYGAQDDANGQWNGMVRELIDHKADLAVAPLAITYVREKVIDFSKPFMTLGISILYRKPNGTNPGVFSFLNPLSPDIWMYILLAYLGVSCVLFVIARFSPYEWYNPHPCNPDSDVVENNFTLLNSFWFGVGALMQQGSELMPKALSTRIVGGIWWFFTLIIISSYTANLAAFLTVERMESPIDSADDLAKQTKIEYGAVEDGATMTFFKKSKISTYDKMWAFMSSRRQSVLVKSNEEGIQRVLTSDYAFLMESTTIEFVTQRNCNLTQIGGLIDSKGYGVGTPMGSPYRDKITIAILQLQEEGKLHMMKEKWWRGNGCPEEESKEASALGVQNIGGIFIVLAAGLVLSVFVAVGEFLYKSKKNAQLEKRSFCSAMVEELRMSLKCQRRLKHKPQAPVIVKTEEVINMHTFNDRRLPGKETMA

SMILES	Efficacy [2] [%]	Efficacy [3] [%]	EC [4] [µM]	EC50 [5] [µM]	further results
O=S1(=O)N[C@H]2CCCN2C2CCCCC21 (some centres undefined)	–	–	–	–	EC [1]: 24.6 µM
CCN1c2cc(Cl)sc2S(=O)(=O)N(C)C1C (centres undefined)	50	60	6.4	24.6	–
O=S1(=O)NCN(C2CC2)c2ccc(F)cc21	–	–	–	–	Activity [6]: 100%; EC [7]: 0.27 µM
CC1N(CC(F)F)c2cc(Cl)sc2S(=O)(=O)N1C (centres undefined)	50	60	–	31.5	EC [8]: 1.2 µM
C=CCN1CNS(=O)(=O)c2sc(Cl)cc21	112	80	18.5	26.9	Activity [6]: 126%
CN1CN(CC(F)F)c2cc(Cl)sc2S1(=O)=O	–	–	–	39.9	EC [8]: 24.5 µM
O=S1(=O)NCN(C2CC2)c2cc(Cl)sc21	50	80	–	4.7	EC [8]: 0.24 µM; Activity [6]: 126%; Activity [9]: Toxic
CN1C2CCCN2c2cc(Cl)sc2S1(=O)=O (centres undefined)	–	–	40.1	> 100	–
O=S1(=O)NC2CCCN2c2cc(Cl)sc21 (centres undefined)	–	–	–	–	Activity (Mus musculus [10]): 69%; Activity [11]: Non-Toxic; Activity [12]: Non-Toxic; Activity (Rattus norvegicus): Active; Activity (Mus musculus [13]): 82%
C=CCN1CN(C)S(=O)(=O)c2sc(Cl)cc21	–	–	80.4	76.5	–
O=S1(=O)CCC(C2CC2)c2ccc(F)cc21 (centres undefined)	–	–	–	–	EC [7]: 2.2 µM
